The values below are quoted from earlier work in PMC11246588, “New 1,2,4-oxadiazole derivatives as potential multifunctional agents for the treatment of Alzheimer’s disease: design, synthesis, and biological evaluation” (BMC Chemistry, 2024).

pIC50: −log10 of the molar value.

For one series, the target named is T1, AChE (Homo sapiens, UniProt P22303).
T1 construct: homogenate supernatant was added in activity ELISA wells only; from tissue; host or cells: brain homogenate supernatant
More on the design: method as in PMID 18550375, PMID 33017743, PMID 36223681, PMID 34752955, PMID 26077890. Conditions: Fig. 1; ref [50]–[55]; cited from earlier work.

Details of series [1]: method as in PMID 18550375, PMID 33017743, PMID 36223681, PMID 34752955, PMID 26077890. Conditions: Fig. 1; ref [50]–[55]; read-out: Anti-neuroinflammatory potency (IC50); cited from earlier work.
For the next series, the system named is GSK-3β. Further details: method as in PMID 18550375, PMID 33017743, PMID 36223681, PMID 34752955, PMID 26077890. Conditions: Fig. 1; ref [50]–[55]; cited from earlier work.
Another series has as its system BChE. Further details: method as in PMID 18550375, PMID 33017743, PMID 36223681, PMID 34752955, PMID 26077890. To be noted: Fig. 1; ref [50]–[55]; cited from earlier work.
For another series, the system named is Aβ self-aggregation. More on the design: method as in PMID 18550375, PMID 33017743, PMID 36223681, PMID 34752955, PMID 26077890. Conditions: Fig. 1; ref [50]–[55]; cited from earlier work.
Another series concerns hMAO B. More on the design: method as in PMID 18550375, PMID 33017743, PMID 36223681, PMID 34752955, PMID 26077890. To be noted: Fig. 1; ref [50]–[55]; cited from earlier work.

T1 sequence (P22303 32-614): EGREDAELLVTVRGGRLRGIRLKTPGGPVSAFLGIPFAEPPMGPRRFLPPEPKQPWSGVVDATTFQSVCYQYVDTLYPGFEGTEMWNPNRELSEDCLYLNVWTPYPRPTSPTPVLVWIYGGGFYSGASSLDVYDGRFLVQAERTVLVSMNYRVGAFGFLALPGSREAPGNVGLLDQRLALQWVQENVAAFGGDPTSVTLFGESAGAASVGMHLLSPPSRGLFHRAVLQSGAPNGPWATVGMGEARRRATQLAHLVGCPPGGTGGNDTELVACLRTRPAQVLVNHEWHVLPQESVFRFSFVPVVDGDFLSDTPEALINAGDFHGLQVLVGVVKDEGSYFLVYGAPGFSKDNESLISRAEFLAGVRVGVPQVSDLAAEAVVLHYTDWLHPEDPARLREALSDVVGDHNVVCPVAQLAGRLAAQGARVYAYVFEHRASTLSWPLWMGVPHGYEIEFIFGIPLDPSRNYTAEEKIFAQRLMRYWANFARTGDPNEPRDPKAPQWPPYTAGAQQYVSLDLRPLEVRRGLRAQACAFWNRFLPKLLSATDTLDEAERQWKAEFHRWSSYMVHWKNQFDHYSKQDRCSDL

The term pIC50 denotes −log10 of the IC50, conventionally taken in molar units. In the case of `Cc1cc(-c2noc(-c3ccc(OCC4CCN(Cc5cccc(F)c5)CC4)cc3)n2)ccn1` [III], at AChE, the pIC50 is 7.15.
Consider `CC(C)(C)c1ccc(S(=O)(=O)Nc2ccc(-c3nc(-c4ccnc(Nc5ccccc5Cl)c4)no3)cc2)cc1` [II], for which the results for the pIC50 (in series [1]; with GSK-3β) were 5.16 and 6.72, respectively.
As for `O=C(CNc1ccc(F)cc1)Nc1ccc(-c2nc(-c3ccnc(Nc4ccc(OC(F)(F)F)cc4)c3)no2)cc1` [IV], the pIC50 with BChE was 5.89. The “Inhibited Aβ self-aggregation” value in the series with Aβ self-aggregation is on record as 51.91%.
For `COc1cc(-c2ccc(-c3nc(-c4ccc5[nH]ncc5c4)no3)cc2)cc(OC)c1OC` [VI], in the series on hMAO B, the pIC50 is 7.28.
As for `COc1ccc(-c2noc(Cn3cc(Cn4c5ccccc5c(=O)c5ccccc54)nn3)n2)cc1` [V], on AChE, the pIC50 is 4.94.
